ChEMBL document CHEMBL3046616, “Design, synthesis, and biological activities of milbemycin analogues” (2011)
Values after ≈ are worked out from the molar mass of the structure shown.

Tests used:
Assay type in all cases: functional
Aphis fabae [1] = test: Insecticidal activity against Aphis fabae (black bean aphid) infested soybean tender shoots at 0.625 mg/L measured 48 hr post compound dose by modified FAO dip method
Mythimna separata [2] = test: Insecticidal activity against Mythimna separata (Oriental armyworm) fourth-instar larvae reared compound pre-treated corn leaves assessed as insect mortality at 2.5 mg/L measured 2 days post compound dose
Aphis fabae [3] = test: Insecticidal activity against Aphis fabae (black bean aphid) infested soybean tender shoots at 10 mg/L measured 48 hr post compound dose by modified FAO dip method
Aphis fabae [4] = test: Insecticidal activity against Aphis fabae (black bean aphid) infested soybean tender shoots at 2.5 mg/L measured 48 hr post compound dose by modified FAO dip method
Mythimna separata [5] = test: Insecticidal activity against Mythimna separata (Oriental armyworm) fourth-instar larvae reared compound pre-treated corn leaves assessed as insect mortality at 10 mg/L measured 2 days post compound dose
Mythimna separata [6] = test: Insecticidal activity against Mythimna separata (Oriental armyworm) fourth-instar larvae reared compound pre-treated corn leaves assessed as insect mortality at 0.625 mg/L measured 2 days post compound dose
Tetranychus cinnabarinus = test: Insecticidal activity against Tetranychus cinnabarinus (carmine spider mite) […] assessed as larvicidal activity at 0.006 mg/L after 48 hr
Aphis fabae [7] = test: Insecticidal activity against Aphis fabae (black bean aphid) infested soybean tender shoots measured 48 hr post compound dose by modified FAO dip method; parameters: concentration or dose not given beside the values
Mythimna separata [8] = test: Insecticidal activity against fourth-instar larvae of Mythimna separata (Oriental armyworm) reared on compound pre-treated corn leaves assessed as insect mortality at 0.0625 mg/L measured 2 days post compound dose
Mythimna separata [9] = test: Insecticidal activity against Mythimna separata (Oriental armyworm) fourth-instar larvae reared compound pre-treated corn leaves assessed as insect mortality measured 2 days post compound dose
Mythimna separata [10] = test: Insecticidal activity against Mythimna separata (Oriental armyworm) fourth-instar larvae reared compound pre-treated corn leaves assessed as insect mortality at 0.5 mg/L measured 2 days post compound dose
Mythimna separata [11] = test: Insecticidal activity against fourth-instar larvae of Mythimna separata (Oriental armyworm) reared on compound pre-treated corn leaves assessed as insect mortality at 0.03125 mg/L measured 2 days post compound dose
Aphis fabae [12] = test: Insecticidal activity against Aphis fabae (black bean aphid) infested soybean tender shoots at 0.25 mg/L measured 48 hr post compound dose by modified FAO dip method
Aphis fabae [13] = test: Insecticidal activity against Aphis fabae (black bean aphid) infested soybean tender shoots at 0.125 mg/L measured 48 hr post compound dose by modified FAO dip method
Aphis fabae [14] = test: Insecticidal activity against Aphis fabae (black bean aphid) infested soybean tender shoots at 2 mg/L measured 48 hr post compound dose by modified FAO dip method
Mythimna separata [15] = test: Insecticidal activity against Mythimna separata (Oriental armyworm) fourth-instar larvae reared compound pre-treated corn leaves assessed as insect mortality at 1 mg/L measured 2 days post compound dose
Aphis fabae [16] = test: Insecticidal activity against Aphis fabae (black bean aphid) infested soybean tender shoots at 1 mg/L measured 48 hr post compound dose by modified FAO dip method
Aphis fabae [17] = test: Insecticidal activity against Aphis fabae (black bean aphid infested soybean tender shoots measured 48 hr post compound dose by modified FAO dip method
Aphis fabae [18] = test: Insecticidal activity against Aphis fabae (black bean aphid) infested soybean tender shoots at 0.5 mg/L measured 48 hr post compound dose by modified FAO dip method
Mythimna separata [19] = test: Insecticidal activity against Mythimna separata (Oriental armyworm) fourth-instar larvae reared compound pre-treated corn leaves assessed as insect mortality at 0.25 mg/L measured 2 days post compound dose
Mythimna separata [20] = test: Insecticidal activity against fourth-instar larvae of Mythimna separata (Oriental armyworm) reared on compound pre-treated corn leaves assessed as insect mortality at 0.125 mg/L measured 2 days post compound dose
Aphis fabae [21] = test: Insecticidal activity against Aphis fabae (black bean aphid) infested soybean tender shoots at 0.0625 mg/L measured 48 hr post compound dose by modified FAO dip method

`CCC(C)[C@H]1O[C@]2(CC[C@@H]1C)C[C@@H]1C[C@@H](C/C=C(\C)[C@@H](O[C@H]3C[C@H](OC)[C@@H](OC(=O)CC(C)(C)C)[C@H](C)O3)[C@@H](C)/C=C/C=C3\CO[C@@H]4[C@H](O)C(C)=C[C@@H](C(=O)O1)[C@]34O)O2` (stereo partly drawn) gave a mortality at 0.625 µg/mL (Aphis fabae [1]) of 0%, a mortality at 2.5 µg/mL (Mythimna separata [2]) of 51.2% and a mortality at 10 µg/mL (Aphis fabae [3]) of 80.2%. For the same compound, the mortality at 2.5 µg/mL (Aphis fabae [4]) was 30.2%, the mortality at 10 µg/mL (Mythimna separata [5]) was 88.6% and the mortality at 0.625 µg/mL (Mythimna separata [6]) was 0%. The mortality at 0.006 µg/mL (Tetranychus cinnabarinus) was 34.2%.
With `CCC(C)[C@H]1O[C@]2(CC[C@@H]1C)C[C@@H]1C[C@@H](C/C=C(\C)[C@@H](O[C@H]3C[C@H](OC)[C@@H](OC(=O)Nc4cccc(C)c4)[C@H](C)O3)[C@@H](C)/C=C/C=C3\CO[C@@H]4[C@H](O)C(C)=C[C@@H](C(=O)O1)[C@]34O)O2` (stereo partly drawn) the mortality at 0.625 µg/mL (Aphis fabae [1]) was 88.5%, the mortality at 2.5 µg/mL (Mythimna separata [2]) was 98.6% and the mortality at 10 µg/mL (Aphis fabae [3]) was 100%. It also gave a mortality at 2.5 µg/mL (Aphis fabae [4]) of 100%, a mortality at 10 µg/mL (Mythimna separata [5]) of 100% and a mortality at 0.625 µg/mL (Mythimna separata [6]) of 56.3%. It also gave a mortality at 0.006 µg/mL (Tetranychus cinnabarinus) of 49.2%.
In the case of `CCC(C)[C@H]1O[C@]2(CC[C@@H]1C)C[C@@H]1C[C@@H](C/C=C(\C)[C@@H](OC(=O)c3ccccc3OC)[C@@H](C)/C=C/C=C3\CO[C@@H]4[C@H](O)C(C)=C[C@@H](C(=O)O1)[C@]34O)O2` (stereo partly drawn), the mortality (Aphis fabae [7]) is reported as 68.6%, the mortality at 2.5 µg/mL (Mythimna separata [2]) is reported as 77.3% and the mortality at 10 µg/mL (Mythimna separata [5]) is reported as 97%. The mortality at 0.625 µg/mL (Mythimna separata [6]) was 19.7% and the mortality at 0.006 µg/mL (Tetranychus cinnabarinus) was 19.5%.
`CCC(C)[C@H]1O[C@]2(CC[C@@H]1C)C[C@@H]1C[C@@H](C/C=C(\C)[C@@H](OC(=O)C(C)(C)CC)[C@@H](C)/C=C/C=C3\CO[C@@H]4[C@H](O)C(C)=C[C@@H](C(=O)O1)[C@]34O)O2` (stereo partly drawn) was tested, and the mortality at 0.0625 µg/mL (Mythimna separata [8]) was 0%, the LC50 (Mythimna separata [9]) was 0.25 µg/mL (≈ 0.365 µM) and the mortality at 0.5 µg/mL (Mythimna separata [10]) was 75.2%. For the same compound, the mortality at 0.03125 µg/mL (Mythimna separata [11]) was 0%, the mortality at 0.25 µg/mL (Aphis fabae [12]) was 57.6% and the mortality at 0.125 µg/mL (Aphis fabae [13]) was 45.5%. For the same compound, the mortality at 2 µg/mL (Aphis fabae [14]) was 92.9%, the mortality at 1 µg/mL (Mythimna separata [15]) was 96.9% and the mortality at 1 µg/mL (Aphis fabae [16]) was 85.4%. The mortality at 10 µg/mL (Aphis fabae [3]) was 100%, the LC50 (Aphis fabae [17]; Aphis fabae, 48 h) was 0.15 µg/mL (≈ 0.219 µM) and the mortality at 0.5 µg/mL (Aphis fabae [18]) was 68.2%. The mortality at 0.25 µg/mL (Mythimna separata [19]) was 60%, the mortality at 10 µg/mL (Mythimna separata [5]) was 100% and the mortality at 0.125 µg/mL (Mythimna separata [20]) was 16.7%. The mortality at 0.0625 µg/mL (Aphis fabae [21]) was 38% and the mortality at 0.006 µg/mL (Tetranychus cinnabarinus) was 60.7%.
`CCC(C)[C@H]1O[C@]2(CC[C@@H]1C)C[C@@H]1C[C@@H](C/C=C(\C)[C@@H](OC(=O)C3C(C=C(Cl)Cl)C3(C)C)[C@@H](C)/C=C/C=C3\CO[C@@H]4[C@H](O)C(C)=C[C@@H](C(=O)O1)[C@]34O)O2` (stereo partly drawn) gave a mortality (Aphis fabae [7]) of 87.9%, a mortality at 2.5 µg/mL (Mythimna separata [2]) of 6.4% and a mortality at 10 µg/mL (Mythimna separata [5]) of 6.7%. The mortality at 0.625 µg/mL (Mythimna separata [6]) was 3.3% and the mortality at 0.006 µg/mL (Tetranychus cinnabarinus) was 31.7%.
Work on `CCC(C)[C@H]1O[C@]2(CC[C@@H]1C)C[C@@H]1C[C@@H](C/C=C(\C)[C@@H](O[C@H]3C[C@H](OC)[C@@H](OC(=O)c4ccc(F)cc4)[C@H](C)O3)[C@@H](C)/C=C/C=C3\CO[C@@H]4[C@H](O)C(C)=C[C@@H](C(=O)O1)[C@]34O)O2` (stereo partly drawn) yielded a mortality at 0.625 µg/mL (Aphis fabae [1]) of 97.1%, a mortality at 2.5 µg/mL (Mythimna separata [2]) of 16.7% and a mortality at 10 µg/mL (Aphis fabae [3]) of 100%. For the same compound, the mortality at 2.5 µg/mL (Aphis fabae [4]) was 100%, the mortality at 10 µg/mL (Mythimna separata [5]) was 55.8% and the mortality at 0.625 µg/mL (Mythimna separata [6]) was 0%. The mortality at 0.006 µg/mL (Tetranychus cinnabarinus) was 9.9%.
IVERMECTIN was tested, and the mortality (Mythimna separata [8]) was 6.4%, the LC50 (Mythimna separata [9]) was 0.19 µg/mL and the mortality (Mythimna separata [10]) was 90.9%. The mortality (Mythimna separata [11]) was 0%, the mortality (Aphis fabae [12]) was 74.1% and the mortality (Aphis fabae [13]) was 66.3%. It also gave a mortality (Aphis fabae [14]) of 100%, a mortality (Mythimna separata [15]) of 100% and a mortality (Aphis fabae [16]) of 93.5%. It also gave an LC50 (Aphis fabae [17]) of 0.06 µg/mL, an LC90 (Aphis fabae [17]) of 0.646 µg/mL and a mortality (Aphis fabae [18]) of 89.1%. The mortality (Mythimna separata [19]) was 66.7%, the mortality (Mythimna separata [20]) was 29.1% and the mortality (Aphis fabae [21]) was 53.6%. The mortality (Tetranychus cinnabarinus) was 57.9%.
Work on `CCC(C)[C@H]1O[C@]2(CC[C@@H]1C)C[C@@H]1C[C@@H](C/C=C(\C)[C@@H](O[C@H]3C[C@H](OC)[C@@H](OC(=O)/C(=N\OC)c4ccccc4)[C@H](C)O3)[C@@H](C)/C=C/C=C3\CO[C@@H]4[C@H](O)C(C)=C[C@@H](C(=O)O1)[C@]34O)O2` (stereo partly drawn) yielded a mortality at 0.0625 µg/mL (Mythimna separata [8]) of 0%, an LC50 (Mythimna separata [9]) of 0.35 µg/mL (≈ 0.392 µM) and a mortality at 0.5 µg/mL (Mythimna separata [10]) of 80%. For the same compound, the mortality at 0.03125 µg/mL (Mythimna separata [11]) was 0%, the mortality at 0.25 µg/mL (Aphis fabae [12]) was 34.2% and the mortality at 0.125 µg/mL (Aphis fabae [13]) was 3.3%. It also gave a mortality at 1 µg/mL (Mythimna separata [15]) of 100%, a mortality at 1 µg/mL (Aphis fabae [16]) of 100% and an LC50 (Aphis fabae [17]; Aphis fabae, 48 h) of 0.12 µg/mL (≈ 0.135 µM). It also gave a mortality at 0.5 µg/mL (Aphis fabae [18]) of 70%, a mortality at 0.25 µg/mL (Mythimna separata [19]) of 30.2% and a mortality at 0.125 µg/mL (Mythimna separata [20]) of 6.3%. The mortality at 0.0625 µg/mL (Aphis fabae [21]) was 0% and the mortality at 0.006 µg/mL (Tetranychus cinnabarinus) was 38.7%.
